The text below walks through data of patent publication US20220323402A1, “TREATMENT, AMELIORATION OR PREVENTION OF A VIRAL INFECTION” (priority 2019, published 2022).

For test [1], the system named is ZIKV (Puerto Rico strain, PRVABC59). Nature of the test: Flow cytometry quantification of HepG2 cells positive for Flavivirus antigen after ZIKV infection. Format: cell-based, Zika virus. As to conditions: HepG2, ZIKV PRVABC59 moi=1, 48 h, pre-treated; FIG. 7C. Here is the method:
FIGS. 7A-7K: AHR signaling boosts ZIKV replication in vitro. Flow cytometry quantification of HepG2 cells positive for Flavivirus antigen. HepG2 cells were pre-treated with different concentrations of I3S, CH223191 or DMSO (vehicle) and infected with ZIKV (moi=1) for 48 h. Plots shown are representative of one experiment. Bar graphs (FIG. 7C) represent the mean+s.e.m. of Flavivirus antigen positive cells from at least three independent experiments. P values were determined by a one-way ANOVA followed by Tukey's post-hoc test.
(§1) Stock solutions of I3S and CH223191 were prepared in DMSO, aliquoted and stored according to manufacturer's instructions. For CH223191, cells were pre-treated for 90 minutes and then used for further studies. For I3S, cells were pre-treated overnight.
Cells were fixed and permeabilized using Cytofix/Cytoperm (BD Biosciences). Secondary antibody for flow cytometry was phycoerythrin (PE) goat anti-mouse IgG (BD Biosciences) at a concentration of 1:200. Cells were analyzed on a Guava easyCyte flow cytometer and data was processed using FlowJo software.

For test [2], the system named is Pml promoter. Put plainly: PML promoter Gaussia Luciferase reporter assay in HEK-293 cells. Format: cell-based, human. As to conditions: HEK-293, 24 h post transfection; FIG. 28. Here is the method: FIG. 28: Luciferase assay using a construct coding for the PML promoter cloned upstream of the reporter gene Gaussia Luciferase. HEK-293 cells were pre-treated with CH223191 and transfected with plasmids as indicated. 24 h post transfection, cells were harvested for quantification of Gaussia Luciferase and TK-Renilla activity. Data represent the mean+s.e.m. from three independent experiments. P values were determined by a one-way ANOVA followed by Tukey's post-hoc test.
PML shRNA plasmid (sc-36284-SH) was obtained from Santa Cruz Biotechnology. Transfection of HeLa cells was performed using Lipofectamine 2000 (Thermo Fisher) according to manufacturer's instructions. The plasmid encoding for the promoter region of PML, placed upstream of the Gaussia Luciferase (GLuc) reporter gene, was obtained from Genecopoeia. For the luciferase assay, HEK-293 cells were grown in 96 well-plates and transfected using Fugene-HD Transfection Reagent (Roche). Plasmids used for transfection in each condition are indicated in the experiment. 24 h later, pGudluc activity was analyzed using BioLux Gaussia Luciferase Assay Kit (New England Biolabs) and normalized to TK-Renilla luciferase activity, measured using the Renilla Luciferase Assay System (Promega).
On the technique in general: In a reporter assay the amount or activity of a reporter protein is the signal.

The test system of test [3] is DENV-1, DENV-2, DENV-3, DENV-4. Put plainly: DENV plaque assay of supernatants of A549 cells. As to conditions: A549 pre-treated, moi=0.1, 24 h p.i.; FIGS. 63A-63D. The test is classed as cell-based, dengue virus. Here is the method:
FIG. 62: AHR activation boosts DENV replication. A549 cells were pretreated with the indicated concentrations of I3S for 24 h and infected with DENV-2 (moi=0.1). 48 h p.i. supernatants were harvested for plaque assay.
FIGS. 63A-63D: AHR modulation affects DENV replication. Infectious virus particles in the supernatants of A549 cells pre-treated with CH2213191 and infected with DENV-1 (FIG. 63A), DENV-2 (FIG. 63B), DENV-3 (FIG. 63C) or DENV-4 (FIG. 63D) (moi=0.1). At 24 h p.i. supernatants were harvested for plaque assay.

Test [4] deals with ZIKV. Nature of the test: Infectious virus particles in supernatants of ZIKV-infected HepG2 cells, standard plaque assay in Vero cells. Format: cell-based, Zika virus. The method, then:
FIG. 8: Quantification of infectious virus particles in the supernatants of HepG2 cells pre-treated with CH2213191 or vehicle-treated using a standard plaque assay in Vero cells. Data represent the mean+s.e.m. from three independent experiments. P values were determined by a one-way ANOVA followed by Tukey's post-hoc test.
FIG. 14: Quantification of infectious virus particles in the supernatants of HepG2 cells 48 h p.i. after infection with ZIKV INEVH116141 (Argentina) using a standard plaque assay in Vero cells. Data represent the mean+s.e.m. from three independent experiments. P values were determined by a one-way ANOVA followed by Tukey's post-hoc test.
FIG. 15: Quantification of infectious virus particles in the supernatants of HepG2 cells 48 h p.i. after infection with ZIKV BeH815744 (Brazil) using a standard plaque assay in Vero cells. Data represent the mean+s.e.m. from three independent experiments. P values were determined by a one-way ANOVA followed by Tukey's post-hoc test.
FIG. 16: Quantification of infectious virus particles in the supernatants of HepG2 cells 48 h p.i. after infection with ZIKV MR 766 (Uganda) using a standard plaque assay in Vero cells. Data represent the mean+s.e.m. from three independent experiments. P values were determined by a one-way ANOVA followed by Tukey's post-hoc test.
as §1
C6/36 mosquito cells were infected at a multiplicity of infection of 1 with ZIKV Puerto Rico strain (PRVABC59, ATCC isolate gift from MIT laboratory); viral isolate from Argentina (INEVH116141) provided by Instituto Nacional de Enfermedades Virales Humanas, Pergamino, Argentina, ZIKV Brazil (BeH815744) gene bank accession number KU365780.1 gently provided by Prof. José Luiz Proença Modena and Daniele Durigon and the reference ZIKV strain from Uganda (MR766), respectively, for 1 h at 37° C. in serum-free DMEM. Quantification of viral titers was performed by a standard plaque assay in Vero cells.

Take `Cc1ccccc1/N=N/c1ccc(NC(=O)c2ccnn2C)c(C)c1` [CH223191, 2-Methyl-2H-pyrazole-3-carboxylic Acid (2-methyl-4-o-tolylazo-phenyl)-amide]: the “reduction of ZIKV replication, HepG2 cells expressing viral antigen” value in test [1] is listed as “more than 50%”. In test [2], the “Pml promoter transactivation by NF-κB in presence of co-expressed AHR” value is “rescued”. For the same molecule, in test [3], the “replication of the four DENV serotypes” value is “reduced”. In test [4] (HepG2, 48 h p.i., FIG. 14), the “replication of ZIKV isolate from Argentina (INEVH116141)” value was “suppressed”. Moreover, the “replication of ZIKV isolate from Brazil (BeH815744)” value in test [4] (HepG2, 48 h p.i., FIG. 15) is “suppressed”. Further, the “replication of reference ZIKV strain from Uganda (MR 766)” value in test [4] (HepG2, 48 h p.i., FIG. 16) is on record as “suppressed”. In test [4] (HepG2, ZIKV PRVABC59, FIG. 8), the “reduction of ZIKV replication, infective virus particles released in HepG2 cell culture supernatants” value is reported as “more than 50%”.
